Data on 3 molecules can be found in patent US5374655A, “Methods for the synthesis of monofucosylated oligosaccharides terminating in di-N-acetyllactosaminyl structures” (Alberta Research Council, priority 1992, dated 1994).

The subject of assay [1] is Balb/c mice. Description: Persistence of suppression of the DTH inflammatory response, rechallenge 11 weeks after primary immunization. The class given is in vivo, mouse. The conditions noted are these: rechallenge with L111 S-Layer protein 11 weeks after primary immunization. The method, then: (§1) DTH inflammatory responses were measured using the mouse footpad swelling assay as described by Smith and Ziola^31. […] Seven days later, each group of mice was footpad-challenged with 10 μg of L-111 S-Layer protein. The resulting inflammatory footpad swelling was measured with a Mitutoyo Engineering micrometer 24 hours after challenge.
i. The identical groups of mice treated with hexasaccharide glycoside 5a in Example 7 were rechallenged with L111 S-Layer protein 11 weeks after primary immunization.

Assay [2] has as its system Balb/c mice. Put plainly: Mouse footpad swelling assay, DTH inflammatory response to L111 S-Layer protein. Also on record: INCREASE IN FOOTPAD SWELLING: unit not given here. The assay is classed as in vivo. The method, then:
as §1
To assess the effect of hexasaccharide glycoside 5a on the inflammatory DTH response, groups of mice received 100 μg of this compound, injected into the tail vein, 5 hours after challenge. Control groups received 100 μL of phosphate-buffered saline (PBS).

In a further assay the test system is ELAM-1. Put plainly: ELAM-1 dependent cell adhesion to activated vascular endothelium (U937 or HL60 binding to TNFα-stimulated HUVECs). The class given is cell-based, human. The conditions noted are these: HUVECs stimulated with TNFα (10 ng/ml); U937 or HL60 cells. The method, then: This example examines whether hexasaccharide 5a could inhibit ELAM-1 dependent cell adhesion to activated vascular endothelium. Specifically, an vitro cell binding assay was preformed as described by Lowe et al^33. Briefly, human umbilical vein endothelial cells (HUVECs purchased from Cell Systems, Seattle, Wash., USA) were stimulated with TNFα (10 ng/ml) to express ELAM-1.

In assay [3] the test system is α(13/4)fucosyltransferase. Put plainly: Fucosyltransferase assay: relative rates of fucose transfer onto the 3-hydroxy of GlcNAc in βGal(1-4)βGlcNAc-OR. The class given is biochemical, human. As to conditions: fucosylation of disaccharide glycosides βGal(1-4)βGlcNAc-OR with different substituents at the 6-position of galactose. The method, then: The βGlcNAc α(13/4)fucosyltranferase was purified from human milk, as reported.^4 The enzymatic reactions were carried out at 37° C. in a plastic tube using a sodium cacodylate buffer (100 mM, pH 6.5), MnCl2 (10 mM), ATP (1.6 mM), NaN3 (1.6 mM). The reaction products were isolated and purified as indicated above.
Experiments were conducted to determine the relative rates of transfer of fucosylation onto the 3-hydroxy of the GlcNAc in disaccharide glycosides βGal(1-4)βGlcNAc-OR having different substituents at the 6-position of the galactose. Fucosyltransferase assays were conducted with α(13/4)fucosyltransferase in a manner similar to that described in the art^4 and gave the following results: […]

On to `COC(=O)CCCCCCCCO[C@@H]1O[C@H](CO)[C@@H](O[C@@H]2O[C@H](CO)[C@H](O)[C@H](O[C@@H]3O[C@H](CO)[C@@H](O[C@@H]4O[C@H](CO)[C@H](O)[C@H](O[C@]5(C(=O)O)C[C@H](O)[C@@H](NC(C)=O)[C@H]([C@H](O)[C@H](O)CO)O5)[C@H]4O)[C@H](O)[C@H]3NC(C)=O)[C@H]2O)[C@H](O[C@@H]2O[C@@H](C)[C@@H](O)[C@@H](O)[C@@H]2O)[C@H]1NC(C)=O` [hexasaccharide glycoside 5a, 8-Methoxycarbonyloctyl (5-Acetamido-3,5-dideoxy-α-D-glycero-D-galacto-2-nonulopyranosylonicacid)-(2-3)--O--β-D-galactopyranosyl-(1-4)--O-- 2-acetamido-2-deoxy-β-D-glucopyranosyl-(1-3)--O--β-D-galactopyranosyl-(1-4)--O--[α-L-fucopyranosyl-(1-3)--O--]2-acetamido-2-deoxy-β-D-glucopyranoside], for which the “footpad swelling relative to that exhibited in mice treated with PBS” value with Balb/c mice [1] is on record as “about 60%”. For the same molecule, the “reduction in footpad swelling” value in the assay with Balb/c mice [1] (versus PBS control) was “about 40%”. Moreover, in the assay on Balb/c mice [2] (100 μg injected into the tail vein 5 hours after challenge, swelling measured 24 hours after challenge), the “INCREASE IN FOOTPAD SWELLING” value worked out at 1.5. The “footpad swelling as compared to the control mice” value in the assay on Balb/c mice [2] (100 μg into the tail vein 5 hours after challenge, 24 hours after challenge) is reported as “less than 50%”. In addition, the “inhibition of ELAM-1 dependent binding to the HUVECs” value with ELAM-1 is reported as “inhibits ELAM-1 dependent binding to the HUVECs”.

On to `COC(=O)CCOCCO[C@@H]1O[C@H](CO)[C@@H](O[C@@H]2O[C@H](C)[C@H](O)[C@H](O)[C@H]2O)[C@H](O)[C@H]1NC(C)=O` [H], for which the “Relative Rate of Transfer” value in assay [3] turned out to be 9.

For `COC(=O)CCCCCCCCO[C@@H]1O[C@H](CO)[C@@H](O[C@@H]2O[C@H](CO)[C@H](O)[C@H](O)[C@H]2O)[C@H](O)[C@H]1NC(C)=O` [--OH], in assay [3], the “Relative Rate of Transfer” value is reported as 100.
